Experimental data published in EPA's ToxValDB 9.5 (doi:10.2903/j.efsa.2011.2159).
In brackets after ≈: the same amount, converted by molar mass.

Assays:
Aphidius rhopalosiphi = conditions: not reported; mortality
Mus musculus = conditions: acute; oral; mortality
Anas platyrhynchos = conditions: mortality
Canidae = conditions: chronic; duration: 1 years; oral; Dog Other; clinical signs
Bibionidae = conditions: chronic/long-term; duration: 28 days
Apis mellifera = conditions: acute; duration: 48 hours; oral; unspecified; mortality
Colinus virginianus = conditions: mortality; for LD50: acute, oral
Daphnia magna = conditions: chronic/long-term; duration: 21 days; reproduction

Compound: Cc1c(COC(=O)[C@@H]2[C@H](/C=C(\Cl)C(F)(F)F)C2(C)C)cccc1-c1ccccc1 [Bifenthrin]
- LC50 (Oncorhynchus mykiss; acute, duration: 96 hours, mortality): 0.1 ng/mL (≈ 0.236 nM)
- NOEC (Oncorhynchus mykiss; chronic/long-term, duration: 30 days, other): 1.2e-05 mg/L
- NOAEL (Rattus norvegicus; developmental, development): > 2 mg/kg-day
- NOAEL (Rattus norvegicus; reproduction developmental, reproduction): 3 mg/kg-day
- NOAEL (Rattus norvegicus; subchronic, duration: 90 days, oral, neurology): 2.9 mg/kg-day
- LEL (Aphidius rhopalosiphi): 60 g/ha
- LD50 (Mus musculus): 42.5 mg/kg
- LD50 (Anas platyrhynchos; acute, oral, unspecified): > 2150 mg/kg
- NOEC (Anas platyrhynchos; reproductive): 75 mg/kg
- NOEC (Anas platyrhynchos; short-term, oral, feed): 312 mg/kg
- NOAEL (Canidae): 1.5 mg/kg-day
- NOEC (Bibionidae): 0.00032 mg/L
- LC50 (Tagia sp.; acute, duration: 14 days, mortality): > 16 mg/kg
- NOEC (Tagia sp.; chronic/long-term, duration: 56 days, reproduction): 2.16 mg/kg
- LD50 (Apis mellifera): 0.1 µg/piece
- LD50 (Colinus virginianus; diet): 569 mg/kg-day
- LD50 (Colinus virginianus): 1800 mg/kg
- NOEC (Colinus virginianus; reproduction developmental): 75 mg/kg-day
- NOEC (Daphnia magna): 9.5e-07 mg/L
